This note sets out measurements from the NIST ThermoML archive (doi:10.1016/j.fluid.2005.12.017).

Numbers after ± are expanded uncertainties.

The conditions of series [1]: for molar volume: 101.33 kPa, Pycnometric method; for Normal melting temperature: DTA.
Series [2] can be described thus: Molar enthalpy of transition or fusion. The settings on record: Crystal; DSC.

As to `COC1=C(OC)C(=O)C(C/C=C(\C)CC/C=C(\C)CC/C=C(\C)CC/C=C(\C)CC/C=C(\C)CC/C=C(\C)CC/C=C(\C)CC/C=C(\C)CC/C=C(\C)CCC=C(C)C)=C(C)C1=O` [Coenzyme Q10], the molar volume was 0.0009 ± 1e-05 m3/mol in series [1] (323.15 K, Crystal) and 0.00095 ± 1e-05 m3/mol in series [1] (323.15 K, Liquid). The Normal melting temperature in series [1] (Crystal) turned out to be 49.4 ± 0.5 °C. Moreover, in series [2], the “Molar enthalpy of transition or fusion” value is 19.6 ± 0.478 kcal/mol.
Turning to `CCCCCCCCCCCCCCCC(=O)OCC(COC(=O)CCCCCCCCCCCCCCC)OC(=O)CCCCCCCCCCCCCCC` [1,2,3-propanetriyl tri(hexadecanoate)], the molar volume came out at 0.00087 ± 1e-05 m3/mol in series [1] (338.15 K, Crystal) and 0.00093 ± 1e-05 m3/mol in series [1] (338.15 K, Liquid). The Normal melting temperature in series [1] (Crystal) was 64.2 ± 0.5 °C. Further, the “Molar enthalpy of transition or fusion” value in series [2] was 28.9 ± 0.478 kcal/mol.
